Reference: patent US20060079566A1, “PDK-1/Akt signaling inhibitors” (priority 2003, published 2006)
Entries after “also recorded” stand apart in the source; their conditions may differ. Like-named read-outs stand apart in the source and are kept apart here.

Experiments:
Akt = experiment: Immunoprecipitated Akt kinase assay from drug-treated PC-3 cells (intracellular Akt activation); type: cell-based, human; settings: PC-3 cells treated 2 h, read-out: IC50 for inhibiting intracellular Akt activation
Experimental: Immunoprecipitated Akt kinase assay Akt immunoprecipitation was carried out according to a modified, published procedure. PC-3 cells were treated with DMSO vehicle or the test agents at the indicated concentrations for 2 h and then lysed at 4° C for 1 h in buffer A containing 50 mM Tris-HCl, pH 7.5, 1% Triton X-100, 1 mM EDTA, 1 mM EGTA, 50 mM sodium fluoride, 10 mM sodium β-glycerophosphate. 0.1% 2-mercaptoethanol, 0.1 mM phenylmethylsulfonyl fluoride, and 1 μg/mL each of aprotinin, pepstatin, and leupeptin. Cell lysates were centrifuged at 10,000 g for 5 min, and the supernatant was treated with anti-Akt at 4° C. for 60 min., followed by protein G-agarose beads for additional 60 min. The immunoprecipitate was used to analyze Akt kinase activity by using the Akt/SGK-specific peptide substrate RPRAATF as described above. Values represented the means of two independent determinations.

immunoprecipitated Akt = experiment: Direct inhibition of immunoprecipitated Akt kinase activity; type: biochemical, human
phospho-473Ser Akt = experiment: Western blot of Akt and phospho-Akt in PC-3 cells; type: cell-based, human; settings: 5 μM and above, 2 h
Experimental: Immunoblotting. The general procedure for the Western blot analysis of Akt and phospho-Akt is described as follows. Cells were washed in PBS, resuspended in SDS sample buffer sonicated by an ultrasonic sonicator for 5 sec, and boiled for 5 min. After brief centrifugation, equivalent protein concentrations from the soluble fractions were resolved in 10% SDS-polyacrylamide gels on a Minigel apparatus, and transferred to a nitrocellulose membrane using a semi-dry transfer cell. The transblotted membrane was washed three times with TBS containing 0.05% Tween 20 (TBST). After blocking with TBST containing 5% nonfat milk for 60 min., the membrane was incubated with the primary antibody at 1:1,000 dilution in TBST-5% low fat milk at 4° C. for 12 h, and was then washed three times with TBST. The membrane was probed with goat anti-rabbit IgG-HRP conjugates (1:1,000) for 1 h at room temperature, and was washed with TBST three times. The immunoblots were visualized by enhanced chemiluminescence.

PC-3 cells [1] = experiment: Cell proliferation (Coulter counter) in PC-3 cells; type: cell-based, human; settings: 1 μM; 10% FBS-supplemented RPMI 1640 medium
Experimental: (§1) Cell Culture PC-3 (p53−/−) human androgen-nonresponsive prostate cancer cells were purchased from the American […] (Manassas, Va.). Cells were cultured in RPMI 1640 medium (Gibco, Grand Island, N.Y.) supplemented with 10% fetal bovine serum (FBS; Gibco) at 37° C. in a humidified incubator containing 5% CO2.
Cell proliferation PC-3 cells were seeded into six-well plates at 50,000 cells/well in 10% FBS-containing RPMI 1640 medium. Following a 24 h attachment period, cells were treated in triplicate with the indicated concentration of compounds 1-36 or DMSO vehicle in 10% FBS-containing RPMI-1640 medium. At different time intervals, cells were harvested by trypsinization, and numerated using a Coulter counter model Z1 D/T (Beckman Coulter, Fullerton, Calif.).

PC-3 cells [2] = experiment: Cell viability analysis (MTT) in PC-3 cells; type: cell-based, human
Experimental: as §1
Cell viability analysis The effect of 4-[5-(4-methylphenyl)-3-(trifluoromethyl)-1H-pyrazol-1-yl]benzenesulfonamide and its derivatives on PC-3 cell viability was assessed by using the MTT {[3-(4,5-dimethylthiazol-2-yl)-2,5-diphenyl-2H-tetrazolium bromide]} assay in six replicates. Cells were grown in 10% FBS-supplemented RPMI 1640 medium in 96-well, flat bottomed plates for 24 h, and were exposed to various concentrations of compounds 1-36 dissolved in DMSO (final concentration ≦0.1%) in 1% serum-containing RPMI 1640 medium for different time intervals. Controls received DMSO vehicle at a concentration equal to that in drug-treated cells. The medium was removed, replaced by 200 μl of 0.5 mg/ml of MTT in 10% FBS-containing RPMI-1640 medium, and cells were incubated in the CO2 incubator at 37° C. for 2 h. Supernatants were removed from the wells, and the reduced MTT dye was solubilized in 200 μL/well DMSO. Absorbance at 570 nm was determined on a plate reader.

recombinant PDK-1 = molecular target: T1, recombinant PDK-1 (Homo sapiens, UniProt O15530); experiment: PDK-1 kinase activity (Upstate kit, SGK-coupled, cell-free); type: biochemical; settings: ratio of IC50 values
T1 construct: purchased Upstate (Lake Placid, N.Y.)
T1 sequence (O15530 1-556): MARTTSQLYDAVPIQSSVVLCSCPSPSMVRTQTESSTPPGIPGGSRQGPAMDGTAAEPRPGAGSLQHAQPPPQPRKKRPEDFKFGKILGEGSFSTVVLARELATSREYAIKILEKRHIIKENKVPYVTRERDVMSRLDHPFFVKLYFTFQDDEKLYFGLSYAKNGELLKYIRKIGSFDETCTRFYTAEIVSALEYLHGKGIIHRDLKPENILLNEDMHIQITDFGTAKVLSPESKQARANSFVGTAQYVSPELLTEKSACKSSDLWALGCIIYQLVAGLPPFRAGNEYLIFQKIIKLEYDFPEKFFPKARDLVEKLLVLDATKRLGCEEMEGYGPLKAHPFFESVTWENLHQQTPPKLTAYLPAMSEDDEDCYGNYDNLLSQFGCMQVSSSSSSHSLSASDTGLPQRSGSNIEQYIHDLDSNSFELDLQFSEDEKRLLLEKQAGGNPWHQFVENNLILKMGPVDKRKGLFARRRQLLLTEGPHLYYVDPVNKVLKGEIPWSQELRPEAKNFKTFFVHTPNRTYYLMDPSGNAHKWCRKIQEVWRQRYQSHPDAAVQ
Experimental: PDK-1 kinase activity This in vitro assay was performed using a PDK-1 kinase assay kit (Upstate, Lake Placid, N.Y.) according to the vendor's instructions. This cell-free assay is based on the ability of recombinant PDK-1, in the presence of DMSO vehicle or the test agent, to activate its downstream kinase serum- and glucocorticoid-regulated kinase (SGK.) which, in turn, phosphorylates the Akt/SGK-specific peptide substrate RPRAATF with [γ-^32]-ATP. […] The reported values represent the means of two independent determinations.

MALNE-3M = experiment: NCI DTP screen (SRB), Melanoma; type: cell-based; settings: MALME-3M
[3] = system: sixty human tumor cell lines; experiment: NCI DTP sixty cell line assay, means over the panel; type: cell-based
Experimental: (§2) Screening of compounds 70 and 71 against several cancer cell lines The human tumor cell lines of the cancer screening panel are grown in RPMI 1640 medium containing 5% fetal bovine serum and 2 mM L-glutamine. For a typical screening experiment, cells are inoculated into 96 well microtiter plates in 100 μL at plating densities ranging from 5,000 to 40,000 cells/well depending on the doubling time of individual cell lines. After cell inoculation, the microtiter plates are incubated at 37° C., 5% CO2, 95% air and 100% relative humidity for 24 h prior to addition of experimental drugs.
(§3) After 24 h, two plates of each cell line are fixed in situ with TCA, to represent a measurement of the cell population for each cell line at the time of drug addition (Tz). Experimental drugs are solubilized in dimethyl sulfoxide at 400-fold the desired final maximum test concentration and stored frozen prior to use. At the time of drug addition, an aliquot of frozen concentrate is thawed and diluted to twice the desired final maximum test concentration with complete medium containing 50 μg/ml gentamicin. Additional four, 10-fold or ½ log serial dilutions are made to provide a total of five drug concentrations plus control. Aliquots of 100 μl of these different drug dilutions are added to the appropriate microtiter wells already containing 100 μl of medium, resulting in the required final drug concentrations.
(§4) Following drug addition, the plates are incubated for an additional 48 h at 37° C., 5% CO2, 95% air, and 100% relative humidity. For adherent cells, the assay is terminated by the addition of cold TCA. Cells are fixed in situ by the gentle addition of 50 μl of cold 50% (w/v) TCA (final concentration, 10% TCA) and incubated for 60 minutes at 4° C. The supernatant is discarded, and the plates are washed five times with tap water and air dried. Sulforhodamine B (SRB) solution (100 μl) at 0.4% (w/v) in 1% acetic acid is added to each well, and plates are incubated for 10 minutes at room temperature. After staining, unbound dye is removed by washing five times with 1% acetic acid and the plates are air dried. Bound stain is subsequently solubilized with 10 mM trizma base, and the absorbance is read on an automated plate reader at a wavelength of 515 nm. For suspension cells, the methodology is the same except that the assay is terminated by fixing settled cells at the bottom of the wells by gently adding 50 μl of 80% TCA (final concentration, 16% TCA). Using the seven absorbance measurements [time zero, (Tz), control growth, (C), and test growth in the presence of drug at the five concentration levels (Ti)], the percentage growth is calculated at each of the drug concentrations levels. Percentage growth inhibition is calculated as: [(Ti−Tz)/(C−Tz)]×100 for concentrations for which Ti>/=Tz [(Ti−Tz)/Tz]×100 for concentrations for which Ti<Tz
(§5) Three dose response parameters are calculated for each experimental agent. […] The drug concentration resulting in total growth inhibition (TGI) is calculated from Ti=Tz. […] Values are calculated for each of these three parameters if the level of activity is reached; however, if the effect is not reached or is exceeded, the value for that parameter is expressed as greater or less than the maximum or minimum concentration tested.

[4] = Preliminary animal studies, daily oral administration; settings: daily oral administration for one month; data not shown
U251 = experiment: NCI DTP screen (SRB), CNS Cancer; type: cell-based, human; settings: Log10 Concentration −4.0
Experimental: as §2, with “drugs. […]” for “drugs.”
Following drug addition, the plates are incubated for an additional 48 h at 37° C., 5% CO2, 95% air, and 100% relative humidity. […] Bound stain is subsequently solubilized with 10 mM trizma base, and the absorbance is read on an automated plate reader at a wavelength of 515 nm. […] Using the seven absorbance measurements [time zero, (Tz), control growth, (C), and test growth in the presence of drug at the five concentration levels (Ti)], the percentage growth is calculated at each of the drug concentrations levels. Percentage growth inhibition is calculated as: [(Ti−Tz)/(C−Tz)]×100 for concentrations for which Ti>/=Tz [(Ti−Tz)/Tz]×100 for concentrations for which Ti<Tz
Three dose response parameters are calculated for each experimental agent. […]

[5] = in vivo
LOX IMVI = experiment: NCI DTP screen (SRB), Melanoma; type: cell-based; settings: LOX IKVI
Experimental: as §2, §3, §4, §5

UO-31 = experiment: NCI DTP screen (SRB), Renal Cancer; type: cell-based, human; settings: UD-31
Experimental: as §2, §3, §4, §5

RXP 393 = experiment: NCI DTP screen (SRB), Renal Cancer; type: cell-based, human
Experimental: as §2, §3, §4, §5

HS 57BT = experiment: NCI DTP screen (SRB), Breast Cancer; type: cell-based; settings: HS S78T
Experimental: as §2, §3, §4, §5

MCP7 = experiment: NCI DTP screen (SRB), Breast Cancer; type: cell-based, human; settings: MCF7
Experimental: as §2, §3, §4, §5

NCI-H322M = experiment: NCI DTP screen (SRB), Non-Small Cell Lung Cancer; type: cell-based; settings: NCI-H322H
Experimental: as §2, §3, §4, §5

4-[5-(2-phenanthrenyl)-3-(trifluoromethyl)-1H-1-yl]benzenesulfonamide [Compound 59]
IC50 (Akt): 5 µM | direct inhibitory effect on immunoprecipitated Akt kinase activity (immunoprecipitated Akt): Neither compound 59 nor other the other compounds displayed a direct inhibitory effect; also recorded: no appreciable direct inhibition | Akt dephosphorylation (Western blot) (phospho-473Ser Akt): significant Akt dephosphorylation | anti-proliferative activity on PC-3 cell proliferation (PC-3 cells [1]): substantial anti-proliferative activity | IC50 (PC-3 cells [2]; 24 h, 1% FBS-containing RPMI 1640 medium, read-out: dose required to induce 50% PC-3 cell death): 5 µM | IC50 (PC-3 cells [2]; inducing apoptotic death in PC-3 cells / PC-3 cell viability, read-out: IC50 PC-3): 5 µM | improvement of IC50 values (PDK-1 and PC-3) over the comparative compound (recombinant PDK-1): five- to six-fold

N=C(N)Nc1ccc(-n2nc(C(F)(F)F)cc2-c2ccc3c(ccc4ccccc43)c2)cc1 [Compound 71, 4-[5-(2-Phenanthrenyl)-3-(trifluoromethyl)-1H-pyrazol-1-yl]-phenyl-guanidine]
Percent Growth (MALNE-3M; Log10 Concentration −4.0): −50% | Percent Growth (MALNE-3M; Log10 Concentration −5.0): −87% | range in which cell growth is completely suppressed in a diverse range of tumor cell lines [3]: 3 to 5 µM | concentration at which many cell lines respond to the growth inhibitory effect ([3]; two-day exposure, 5% FBS-containing medium): ≥ 0.1 µM | GI50 ([3]; two-day treatment, serum-containing medium, read-out: mean GI50 among the sixty cell lines): 1.3 µM | toxicity to the animals [4]: little toxicity | Percent Growth (U251): −12% | oral absorption [5]: can be orally absorbed | average serum concentrations relative to TGI ([5]; po): average serum concentrations several-fold higher than TGI | Percent Growth (LOX IMVI; Log10 Concentration −4.0): −53% | Percent Growth (LOX IMVI; Log10 Concentration −5.0): −98% | Percent Growth (UO-31; Log10 Concentration −4.0): −35% | Percent Growth (UO-31; Log10 Concentration −5.0): −100% | Percent Growth (RXP 393; Log10 Concentration −4.0): −4% | Percent Growth (RXP 393; Log10 Concentration −5.0): −61% | direct inhibitory effect on immunoprecipitated Akt kinase activity (immunoprecipitated Akt): no appreciable direct inhibition | Percent Growth (HS 57BT; Log10 Concentration −4.0): −38% | Percent Growth (HS 57BT; Log10 Concentration −5.0): −69% | Percent Growth (MCP7; Log10 Concentration −4.0): −49% | Percent Growth (MCP7; Log10 Concentration −5.0): −84% | Percent Growth (NCI-H322M; Log10 Concentration −4.0): −59% | Percent Growth (NCI-H322M; Log10 Concentration −5.0): −100% | increase in PDK-1 inhibition potency over compound 59 (recombinant PDK-1): five-fold
